Source: patent publication US20250339494A1, “COMPOUNDS INDUCING PRODUCTION OF PROTEINS BY IMMUNE CELLS” (UNIVERSITE PARIS CITE, priority 2022, published 2025)

Tested on: Human B cells
Test: IL-10 induction in human B cells cultivated 2 days with anti-IgM plus CpG; IL-10 measured in cell culture supernatants
Type: cell-based
Settings: 2 consecutive days, molecule at 0.25 μM final concentration, culture supernatant
Procedure: Human B cells isolated magnetically through negative selection (B Cell Isolation Kit II, human, Miltenyi ref: 130-091-151) were cultivated for 2 consecutive days in the presence of anti-IgM plus CpG in the presence of the indicated molecule (see table 3) at 0.25 μM final concentration. IL-10 was measured in cell culture supernatants.
Human B cells isolated magnetically through negative selection (B Cell Isolation Kit II, human, Miltenyi ref: 130-091-151) were cultivated for 2 consecutive days in the presence of anti-IgM plus CpG in the presence of DMSO (as control) or in the presence of the indicated molecule (as identified in the attached excel file) at 0.25 microM final concentration. IL-10 was measured in cell culture supernatants. NS: non stimulated B cell culture condition.

2-methoxy-N-(1-methyl-2-(pyridin-3-yl)-1H-imidazo[4,5-b]pyridin-5-yl)benzamide + 2-methoxy-N-(3-methyl-2-(pyridin-3-yl)-3H-imidazo[4,5-b]pyridin-5-yl)benzamide [Compound 131]
IL-10 Induction Mean (pg/mL) human: 1.85 pg/mL
